Where two headings read alike, the source gives them in different places.
Tests used:
[1] = biological target: wild-type human cardiac sodium channel, hNav1.5 (late INa) (Homo sapiens, UniProt Q14524); experiment: Late INa screening assay (QPatch whole cell patch clamp); format: cell-based
Procedure, shortened: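 Compounds tested at 1 μM final in extracellular solution against tefluthrin (10 μM)-enhanced late current. Automated patch clamp (23-25° C) on HEK293 expressing alpha subunit alone: −120 mV holding, 250 ms depolarization to −20 mV every 10 s. Read-out is percent inhibition of mean current over 225–250 ms.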

[2] = biological target: hERG potassium channel (Homo sapiens, UniProt Q12809); experiment: hERG screening assay (PatchXpress, CHO cells); format: cell-based; details: % inhibition at 1 μM
Chain of hERG potassium channel (Q12809 whole entry): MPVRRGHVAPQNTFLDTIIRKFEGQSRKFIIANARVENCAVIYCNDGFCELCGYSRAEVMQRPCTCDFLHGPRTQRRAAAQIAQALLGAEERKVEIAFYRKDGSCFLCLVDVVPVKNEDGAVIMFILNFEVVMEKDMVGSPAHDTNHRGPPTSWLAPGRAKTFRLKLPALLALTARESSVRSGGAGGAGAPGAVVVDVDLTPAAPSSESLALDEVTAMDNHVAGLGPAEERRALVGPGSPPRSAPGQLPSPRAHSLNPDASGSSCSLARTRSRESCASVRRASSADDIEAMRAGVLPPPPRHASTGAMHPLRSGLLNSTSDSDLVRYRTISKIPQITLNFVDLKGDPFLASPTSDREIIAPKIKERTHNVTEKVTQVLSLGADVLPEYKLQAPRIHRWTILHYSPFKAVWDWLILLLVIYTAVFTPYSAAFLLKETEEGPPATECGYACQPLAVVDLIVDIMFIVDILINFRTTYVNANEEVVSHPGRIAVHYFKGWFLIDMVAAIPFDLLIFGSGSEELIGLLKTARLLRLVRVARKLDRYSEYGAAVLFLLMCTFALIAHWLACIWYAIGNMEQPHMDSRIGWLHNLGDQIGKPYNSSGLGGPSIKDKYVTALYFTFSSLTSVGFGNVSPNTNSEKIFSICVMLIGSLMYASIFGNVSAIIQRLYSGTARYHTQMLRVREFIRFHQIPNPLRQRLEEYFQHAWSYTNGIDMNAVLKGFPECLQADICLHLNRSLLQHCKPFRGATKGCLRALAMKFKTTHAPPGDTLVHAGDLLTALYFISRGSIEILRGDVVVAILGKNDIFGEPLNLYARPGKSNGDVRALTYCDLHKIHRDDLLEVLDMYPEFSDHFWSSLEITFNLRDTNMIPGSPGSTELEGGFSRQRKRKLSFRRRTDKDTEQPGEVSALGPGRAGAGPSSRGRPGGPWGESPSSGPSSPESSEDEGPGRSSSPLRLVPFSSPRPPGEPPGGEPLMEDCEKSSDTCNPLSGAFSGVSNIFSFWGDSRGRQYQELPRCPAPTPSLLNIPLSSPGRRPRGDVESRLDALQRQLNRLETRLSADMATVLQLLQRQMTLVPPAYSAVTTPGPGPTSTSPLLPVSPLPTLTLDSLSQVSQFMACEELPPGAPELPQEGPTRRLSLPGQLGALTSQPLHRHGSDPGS
Method: Compounds were also tested for their effect to block the hERG K^+ channel.
Compounds were screened to test their activity in blocking the hERG potassium channel at AVIVA Biosciences (San Deigo, Calif., USA). The hERG channel is heterologously expressed in a CHO (Chinese Hamster Ovary) cell line. Cells were maintained with standard tissue culture procedures and stable channel expression was maintained with 500 μg/mL G418 in the culture medium. Cells were harvested for testing on the PatchXpress 7000A automated patch clamp with Accumax (Innovative Cell Technologies, San Diego, Calif.) to isolate single cells.
The following solutions were used for electrophysiological recordings. The external solution contained: 2 mM CaCl2; 2 mM MgCl2; 4 mM KCl; 150 mM NaCl; 10 mM Glucose; 10 mM HEPES (pH 7.4 with 1M NaOH; osmolarity, ˜310 mOsm). The internal solution contained: 140 mM KCl, 10 mM MgCl2, 6 mM EGTA, 5 mM HEPES, 5 mM ATP (pH adjusted to 7.25 with KOH; osmolarity, ˜295 mOsm).
hERG channels were activated when the voltage was first stepped to −50 mV for 300 ms from the −80 mV holding potential and then stepped to +20 mV for 5 seconds. At +20 mV the channels open and then largely inactivate, so the currents are relatively small. Upon returning to −50 mV from +20 mV, hERG currents transiently become much larger as inactivation is rapidly removed and then the channel closes. The first step to −50 mV for 300 ms was used as a baseline for measuring the peak amplitude during the step to −50 mV after channel activation. The peak tail current at −50 mV was measured both under control conditions and after addition of compound, each cell serving as its own control.
All compounds were prepared as 10 mM DMSO stocks in glass vials. Stock solutions were mixed by vigorous vortexing and sonication for about 2 minutes at room temperature. For testing, compounds were diluted in glass vials using an intermediate dilution step in pure DMSO and then further diluted to working concentrations in external solution. Dilutions were prepared no longer than 20 minutes before use.
For the electrophysiological recordings, after achieving the whole-cell configuration, cells were monitored for 90 seconds to assess stability and washed with external solution for 66 seconds. The voltage protocol described above was then applied to the cells every 12 seconds and throughout the whole procedure. Only cells with stable recording parameters and meeting specified health criteria were allowed to enter the compound addition procedure.
External solution containing 0.1% DMSO (vehicle) was applied to the cells first to establish the control peak current amplitude. After allowing the current to stabilize for 3 to 5 minutes, 1 μM and then 10 μM test compounds were applied. Each compound concentration was added 4 times and cells were kept in test solution until the effect of the compound reached steady state or for a maximum of 12 minutes. After addition of test compound, a positive control (1 μM Cisapride) was added and must block >95% of the current for the experiment to be considered valid. Washout in the external solution compartment was performed until the recovery of the current reached steady state.

[3] = Microsomal stability assay, rat; format: in vitro ADME; details: metabolic stability, rat liver microsomes 0.5 mg/mL, substrate 3 uM
Procedure, shortened: (§1)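 Liver microsomes at 0.5 mg/mL protein in 100 mM KPO4 buffer, incubated with 3 uM compound and NADPH-regenerating system, run in duplicate. Samples taken at 2, 12, 25, 45 and 65 min and quenched in MeOH/ACN/water before analysis.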

[4] = Microsomal stability assay, dog; format: in vitro ADME; details: metabolic stability, dog liver microsomes 0.5 mg/mL, substrate 3 uM
Procedure, shortened: as §1

[5] = Microsomal stability assay, human; format: in vitro ADME; details: metabolic stability, human liver microsomes 0.5 mg/mL, substrate 3 uM
Procedure, shortened: as §1

[6] = biological target: T1, hNav1.1 (Homo sapiens, UniProt P35498); experiment: Nav1.1 use-dependent block, whole-cell voltage clamp; format: cell-based; details: use-dependent block 10 Hz, read-out: NAv1.1*-CHAN TEST-UDB-10 HZ-
T1 construct: expressed in transfected cells; host or cells: HEK293, transient transfection (α1:β1:β2 = 10:1:1)

[7] = biological target: T2, Human Nav1.2 (Homo sapiens, UniProt Q99250); experiment: Nav1.2 use-dependent block, whole-cell voltage clamp; format: cell-based; details: use-dependent block 10 Hz, read-out: NAv1.2*-CHAN TEST-UDB-10 HZ-
T2 construct: expressed in transfected cells
T2 sequence (Q99250 whole entry): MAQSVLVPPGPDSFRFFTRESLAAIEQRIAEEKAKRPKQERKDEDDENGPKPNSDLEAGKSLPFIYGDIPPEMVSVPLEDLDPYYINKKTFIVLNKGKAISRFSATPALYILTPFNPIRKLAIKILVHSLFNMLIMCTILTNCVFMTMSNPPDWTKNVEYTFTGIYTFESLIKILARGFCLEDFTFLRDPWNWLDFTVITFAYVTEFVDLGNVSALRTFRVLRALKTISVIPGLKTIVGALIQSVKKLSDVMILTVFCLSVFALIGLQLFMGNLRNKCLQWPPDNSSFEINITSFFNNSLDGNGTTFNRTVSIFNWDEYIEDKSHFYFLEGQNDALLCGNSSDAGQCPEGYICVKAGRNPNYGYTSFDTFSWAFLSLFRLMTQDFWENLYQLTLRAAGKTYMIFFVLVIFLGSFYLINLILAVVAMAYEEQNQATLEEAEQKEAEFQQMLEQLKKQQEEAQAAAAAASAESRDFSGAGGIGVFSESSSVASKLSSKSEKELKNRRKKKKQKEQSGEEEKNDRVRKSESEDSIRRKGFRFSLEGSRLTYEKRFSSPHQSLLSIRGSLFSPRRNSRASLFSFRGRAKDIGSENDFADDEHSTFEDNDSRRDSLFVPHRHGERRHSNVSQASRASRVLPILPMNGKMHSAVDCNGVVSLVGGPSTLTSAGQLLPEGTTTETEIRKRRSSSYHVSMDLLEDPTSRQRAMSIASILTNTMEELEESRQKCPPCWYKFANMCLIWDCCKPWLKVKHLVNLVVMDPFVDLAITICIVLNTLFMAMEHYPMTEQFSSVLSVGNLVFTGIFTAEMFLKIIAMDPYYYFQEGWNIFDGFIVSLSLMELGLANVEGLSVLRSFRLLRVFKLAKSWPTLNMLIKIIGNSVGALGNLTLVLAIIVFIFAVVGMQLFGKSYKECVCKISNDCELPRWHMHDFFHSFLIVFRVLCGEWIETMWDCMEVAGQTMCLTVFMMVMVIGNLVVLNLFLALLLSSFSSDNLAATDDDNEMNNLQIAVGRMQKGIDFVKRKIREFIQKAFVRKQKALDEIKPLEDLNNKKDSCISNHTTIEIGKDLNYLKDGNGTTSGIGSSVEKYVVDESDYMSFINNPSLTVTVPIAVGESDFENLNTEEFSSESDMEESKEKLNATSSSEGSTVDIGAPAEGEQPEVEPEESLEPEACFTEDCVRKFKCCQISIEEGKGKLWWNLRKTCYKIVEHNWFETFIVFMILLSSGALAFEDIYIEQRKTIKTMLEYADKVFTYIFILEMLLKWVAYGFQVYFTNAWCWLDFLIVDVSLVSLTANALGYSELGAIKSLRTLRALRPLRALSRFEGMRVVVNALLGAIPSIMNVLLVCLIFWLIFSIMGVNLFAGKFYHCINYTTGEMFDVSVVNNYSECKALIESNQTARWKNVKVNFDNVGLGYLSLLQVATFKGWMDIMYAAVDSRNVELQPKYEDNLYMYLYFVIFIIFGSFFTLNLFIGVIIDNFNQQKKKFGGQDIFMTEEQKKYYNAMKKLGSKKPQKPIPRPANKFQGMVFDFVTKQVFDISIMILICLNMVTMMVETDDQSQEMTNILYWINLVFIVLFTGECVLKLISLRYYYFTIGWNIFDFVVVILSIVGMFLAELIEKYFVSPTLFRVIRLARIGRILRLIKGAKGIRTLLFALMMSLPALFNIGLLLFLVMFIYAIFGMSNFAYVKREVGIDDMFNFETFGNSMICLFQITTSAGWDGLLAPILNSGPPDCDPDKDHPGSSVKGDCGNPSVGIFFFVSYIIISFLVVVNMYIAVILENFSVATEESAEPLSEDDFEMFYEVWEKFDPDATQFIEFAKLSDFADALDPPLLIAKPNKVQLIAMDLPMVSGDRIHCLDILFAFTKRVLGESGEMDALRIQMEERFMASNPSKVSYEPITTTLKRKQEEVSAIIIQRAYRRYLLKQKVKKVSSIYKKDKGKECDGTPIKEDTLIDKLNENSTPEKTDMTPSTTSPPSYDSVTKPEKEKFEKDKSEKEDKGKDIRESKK
Description: Wild-type (WT) cDNA stably transfected in Chinese hamster ovary (CHO) cells is used to record INa. Unless otherwise noted, all reagents are purchased from Sigma-Aldrich (St Louis, Mo., U.S.A.).
Whole-cell voltage-clamp recordings are used to measure the biophysical properties of WT. Briefly, the pipette solution consists of (in mM) 110 CsF, 10 NaF, 20 CsCl, 2 EGTA, 10 HEPES, with a pH of 7.35 and osmolarity of 300 mOsmol/kg. The bath (control) solution contains in (mM): 145 NaCl, 4 KCl, 1.8 CaCl2, 1 MgCl2, 10 dextrose, 10 HEPES, with a pH of 7.35 and osmolarity of 310 mOsmol/kg. Cells are allowed to stabilize for 10 min after establishment of the whole-cell configuration before current is measured. Series resistance is compensated 90% to assure that the command potential is reached within microseconds with a voltage error <2 mV. Leak currents are subtracted by using an online P/4 procedure and all currents are low-pass Bessel filtered at 5 kHz and digitized at 50 kHz.
Tonic block of peak current is measured using a step to −10 mV (20 ms) from a holding potential of −120 mV (0.2 Hz). Use-dependent block of peak current is measured during pulse number 300 of a pulse train (−10 mV, 5 ms, 300 pulses, 10 Hz or 25 Hz) from a holding potential of −120 mV. Two sequential pulse train stimulations are averaged to obtain mean current traces for each recording condition, which are then used for offline subtraction and analysis.
For use-dependent studies, cells are stimulated with depolarizing pulse trains (−10 mV, 5 ms, 300 pulses, 10 and 25 Hz) from a holding potential of −120 mV. Currents are then normalized to the peak current recorded in response to the first pulse in each frequency train. For tonic block studies, peak current is evaluated in response to a 20 ms depolarization to −10 mV (0.2 Hz). Data analysis is performed using Clampfit 9.2 (Axon Instruments, Union City, Calif., U.S.A), Excel 2002 (Microsoft, Seattle, Wash., U.S.A.), and OriginPro 7.0 (OriginLab, Northampton, Mass., U.S.A) software. Results are presented as mean±SEM.
A stock solution of 10 mM compound of Formula I is prepared in 0.1 M HCl or DMSO. A fresh dilution of the compound of Formula I in the bath solution is prepared every experimental day and the pH is readjusted to 7.35 as necessary. The final DMSO concentration was kept at 0.1% in all solutions. Direct application of the perfusion solution to the clamped cell is achieved using the Perfusion Pencil system (Automate, Berkeley, Calif.). Direct cell perfusion is driven by gravity at a flow rate of 350 μL/min using a 250 micron tip. This system sequesters the clamped cell within a perfusion stream and enables complete solution exchange within 1 second. The clamped cell is perfused continuously starting immediately after establishing the whole-cell configuration. Control currents are measured during control solution perfusion.
Solutions are perfused for three minutes prior to current recordings to allow equilibrium (tonic) drug block. Tonic block of peak currents is measured from this steady-state condition. Three sequential current traces are averaged to obtain a mean current for each recording. The mean current traces are utilized for offline analysis. Use-dependent block of peak current is measured during pulse number 300 of the pulse train, (−10 mV, 5 ms, 300 pulses, 10 Hz) from a holding potential of −120 mV. Two sequential pulse train stimulations are averaged to obtain mean current traces for each recording condition, which are then used for offline subtraction and analysis. Where appropriate, concentration inhibition curves are fit with the Hill equation: I/Imax=1/[1+10̂(log IC50−I)*k], where IC50 is the concentration that produces half inhibition and k is the Hill slope factor.

[8] = % inhibition at 1 μM, read-out: NAv1.5*-LATE-
[9] = percent block of late INa, compound at 1 μM, 10 μM Tefluthrin, HEK293 hNav1.5, read-out: Late INa 1 μM

Chain of wild-type human cardiac sodium channel, hNav1.5 (late INa) (Q14524 whole entry): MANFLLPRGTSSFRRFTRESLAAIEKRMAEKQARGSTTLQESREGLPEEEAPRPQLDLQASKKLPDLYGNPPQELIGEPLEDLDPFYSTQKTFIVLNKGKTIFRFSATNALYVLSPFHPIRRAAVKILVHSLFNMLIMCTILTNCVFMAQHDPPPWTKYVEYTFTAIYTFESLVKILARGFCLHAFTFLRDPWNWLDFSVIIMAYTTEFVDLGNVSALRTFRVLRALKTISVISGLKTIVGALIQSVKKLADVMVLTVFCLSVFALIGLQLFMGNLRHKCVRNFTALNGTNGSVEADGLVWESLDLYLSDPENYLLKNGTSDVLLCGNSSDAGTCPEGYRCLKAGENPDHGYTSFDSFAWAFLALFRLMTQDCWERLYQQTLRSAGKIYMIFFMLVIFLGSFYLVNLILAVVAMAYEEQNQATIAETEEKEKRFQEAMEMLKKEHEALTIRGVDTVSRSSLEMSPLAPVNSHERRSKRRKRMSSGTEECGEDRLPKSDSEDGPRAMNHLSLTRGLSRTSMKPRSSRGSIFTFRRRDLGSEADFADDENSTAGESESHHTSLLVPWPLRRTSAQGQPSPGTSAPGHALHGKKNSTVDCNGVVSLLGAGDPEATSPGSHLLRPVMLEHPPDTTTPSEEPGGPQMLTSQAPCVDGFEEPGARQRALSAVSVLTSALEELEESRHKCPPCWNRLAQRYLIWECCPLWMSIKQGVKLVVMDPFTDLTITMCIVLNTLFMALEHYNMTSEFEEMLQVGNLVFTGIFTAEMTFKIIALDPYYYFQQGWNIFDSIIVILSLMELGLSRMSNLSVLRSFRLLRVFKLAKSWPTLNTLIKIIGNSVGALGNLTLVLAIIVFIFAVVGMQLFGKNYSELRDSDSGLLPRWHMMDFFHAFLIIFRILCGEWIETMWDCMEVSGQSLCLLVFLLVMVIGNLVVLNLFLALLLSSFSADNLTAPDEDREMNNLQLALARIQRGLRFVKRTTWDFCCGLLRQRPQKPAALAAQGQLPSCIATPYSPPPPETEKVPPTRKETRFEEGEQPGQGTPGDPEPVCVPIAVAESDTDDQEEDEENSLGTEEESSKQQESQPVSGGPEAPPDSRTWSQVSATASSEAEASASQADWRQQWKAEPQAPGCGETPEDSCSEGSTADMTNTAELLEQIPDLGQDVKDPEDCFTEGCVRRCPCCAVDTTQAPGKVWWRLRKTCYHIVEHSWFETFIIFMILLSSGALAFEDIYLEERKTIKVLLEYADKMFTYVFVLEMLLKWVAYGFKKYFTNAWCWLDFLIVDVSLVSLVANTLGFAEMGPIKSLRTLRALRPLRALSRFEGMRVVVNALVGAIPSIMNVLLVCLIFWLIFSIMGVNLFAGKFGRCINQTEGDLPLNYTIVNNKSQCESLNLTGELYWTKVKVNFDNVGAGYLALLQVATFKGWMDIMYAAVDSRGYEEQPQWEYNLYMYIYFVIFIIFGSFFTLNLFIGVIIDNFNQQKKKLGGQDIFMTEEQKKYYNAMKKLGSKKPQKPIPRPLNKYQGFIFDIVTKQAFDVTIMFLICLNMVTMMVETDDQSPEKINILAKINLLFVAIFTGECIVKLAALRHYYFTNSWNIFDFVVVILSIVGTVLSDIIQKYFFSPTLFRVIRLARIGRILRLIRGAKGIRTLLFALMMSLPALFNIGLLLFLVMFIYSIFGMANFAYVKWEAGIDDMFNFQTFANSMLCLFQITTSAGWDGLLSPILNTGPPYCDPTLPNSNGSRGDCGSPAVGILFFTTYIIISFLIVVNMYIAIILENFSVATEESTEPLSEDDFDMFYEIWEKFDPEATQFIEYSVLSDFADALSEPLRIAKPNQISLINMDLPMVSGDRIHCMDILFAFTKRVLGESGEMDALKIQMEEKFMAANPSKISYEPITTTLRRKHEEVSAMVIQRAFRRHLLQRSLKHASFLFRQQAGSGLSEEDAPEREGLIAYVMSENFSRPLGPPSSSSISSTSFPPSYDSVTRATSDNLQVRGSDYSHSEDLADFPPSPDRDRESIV

Structure (SMILES) | inhibition at 1 µM [1, 8] | inhibition at 1 µM [1, 9] | HERG* [2] | MS Rat THalf [3] | MS Dog THalf [4] | MS Human THalf [5] | inhibition at 1 µM [6] | inhibition at 1 µM [7]
O=c1c2cc(-c3ccc(OC(F)(F)F)cc3)ccc2cnn1Cc1ncc(Cl)cn1 [III-35, 2-((5-chloropyrimidin-2-yl)methyl)-7-(4-(trifluoromethoxy)phenyl)phthalazin-1 (2H)-one] | 38% | 38% | 17% | 296 min | 85 min | > 395 min |  | 
O=c1c2cc(-c3ccc(OC(F)(F)F)cc3)ccc2nnn1CCOc1nccc(-c2noc(C3CC3)n2)n1 [II-60, 3-(2-(4-(5-cyclopropyl-1,2,4-oxadiazol-3-yl)pyrimidin-2-yloxy)ethyl)-6-(4-(trifluoromethoxy)phenyl)benzo[d][1,2,3]triazin-4(3H)-one] | 32% | 32% | 31% | > 395 min | 356 min | 362 min |  | 
O=c1c2cc(-c3ccc(OC(F)(F)F)cc3)ccc2nnn1Cc1nnc(C2CC2)s1 [II-66, 3-((5-cyclopropyl-1,3,4-thiadiazol-2-yl)methyl)-6-(4-(trifluoromethoxy)phenyl)benzo[d][1,2,3]triazin-4(3H)-one] | 39% | 39% | 23% | 181 min | > 395 min | > 395 min |  | 
Cc1noc(Cn2ncc3ccc(-c4ccc(OC(F)(F)F)cc4)cc3c2=O)n1 [III-2, 2-((3-methyl-1,2,4-oxadiazol-5-yl)methyl)-7-(4-(trifluoromethoxy)phenyl)phthalazin-1(2H)-one] | 40% | 40% |  | 222 min | 68 min | 333 min | 27.6% | 5%

— US20150329558A1, “FUSED HETEROCYCLIC COMPOUNDS AS ION CHANNEL MODULATORS” (Gilead Sciences, Inc., priority 2011, published 2015)
